Experimental findings from US20160030407A1, “Method of Treating Inflammatory Lung Disease” (priority 2010, published 2016) are described below.

≈ marks a conversion by molar mass, not a printed value.

The target of one data set is nAChR α3/β4 (Homo sapiens, UniProt P30926+P32297). The data set is described as follows: nAChR α3/β4 channel agonist assay (FLIPR). Type of data set: cell-based. As to conditions: test conc 1 μM; 100% = 30 μM Ach, 0% = HBPS. On the procedure:
(§1) Briefly, cells were incubated with […] dye for 30 min at 37° C.

The target of a further data set is T1, nAChR α4/β2 (Homo sapiens, UniProt P17787+P43681).
T1 construct: host or cells: HEK293 cells, transient
T1 sequence (P43681 29-627): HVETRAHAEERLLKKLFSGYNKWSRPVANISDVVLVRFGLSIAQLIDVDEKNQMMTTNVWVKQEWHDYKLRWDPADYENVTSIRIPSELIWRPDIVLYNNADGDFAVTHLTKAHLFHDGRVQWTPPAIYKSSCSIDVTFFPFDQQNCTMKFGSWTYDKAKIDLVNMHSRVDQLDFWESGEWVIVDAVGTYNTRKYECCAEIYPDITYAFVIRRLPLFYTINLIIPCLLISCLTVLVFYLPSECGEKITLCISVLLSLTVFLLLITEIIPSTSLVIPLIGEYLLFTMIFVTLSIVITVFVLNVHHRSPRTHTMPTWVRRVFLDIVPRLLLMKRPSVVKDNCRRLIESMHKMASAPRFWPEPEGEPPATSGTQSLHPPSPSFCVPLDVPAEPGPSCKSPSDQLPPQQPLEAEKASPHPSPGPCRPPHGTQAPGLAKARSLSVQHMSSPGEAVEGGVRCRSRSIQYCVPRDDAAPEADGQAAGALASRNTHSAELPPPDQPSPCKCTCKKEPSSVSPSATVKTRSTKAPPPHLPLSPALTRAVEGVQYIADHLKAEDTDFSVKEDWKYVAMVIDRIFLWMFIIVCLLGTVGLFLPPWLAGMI
T1 sequence (P17787 26-502): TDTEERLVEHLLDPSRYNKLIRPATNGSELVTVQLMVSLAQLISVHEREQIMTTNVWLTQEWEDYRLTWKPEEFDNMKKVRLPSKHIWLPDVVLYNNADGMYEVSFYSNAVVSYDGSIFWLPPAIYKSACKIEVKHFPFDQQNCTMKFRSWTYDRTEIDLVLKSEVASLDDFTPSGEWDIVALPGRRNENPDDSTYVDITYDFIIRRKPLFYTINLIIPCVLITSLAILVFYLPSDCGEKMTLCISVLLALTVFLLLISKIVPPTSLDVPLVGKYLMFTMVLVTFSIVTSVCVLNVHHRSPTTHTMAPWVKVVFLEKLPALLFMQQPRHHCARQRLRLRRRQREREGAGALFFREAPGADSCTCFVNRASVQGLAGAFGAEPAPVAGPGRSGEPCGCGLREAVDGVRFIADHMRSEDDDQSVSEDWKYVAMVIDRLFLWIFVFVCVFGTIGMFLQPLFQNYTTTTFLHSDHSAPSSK
The experiment in a line: nAChR α4/β2 channel agonist assay (FLIPR). Type of data set: cell-based. The conditions noted are these: test conc 0.3 μM; 100% = 30 μM Ach, 0% = HBPS. On the procedure:
as §1

Data set [1] concerns the target T2, nAChR α7 (Homo sapiens, UniProt P36544).
T2 construct: host or cells: CHO cells coexpressing RIC-3
The experiment in a line: nAChR α7 channel agonist assay (FLIPR). The data set is classed as cell-based. The conditions noted are these: in presence of PNU-120596, 100% = 30 μM Ach+10 μM PNU-120596, 0% = HBPS. On the procedure:
as §1
Therefore, the assay of agonist activity for either Ach or for the test articles was conducted in the presence of the positive allosteric modulator.

Data set [2] has as its target T2, nAChR α7. The experiment in a line: nAChR α7 channel positive allosteric modulator assay (FLIPR). The conditions noted are these: with 30 μM Ach, 100% = 30 μM Ach+10 μM PNU-120596, 0% = 30 μM Ach. Type of data set: cell-based. On the procedure: as §1
For data set [3], the target named is T2, nAChR α7. The experiment in a line: nAChR α7 channel antagonist assay (FLIPR). The data set is classed as cell-based. The conditions noted are these: with 300 μM Ach+10 μM PNU-120596, control antagonist 10 μM MLA. Here is the method: as §1
The next data set relates to IL-1β. The data set is described as follows: LPS-induced IL-1β release in whole human blood. The data set is classed as cell-based. The conditions noted are these: whole human blood + LPS; 16 hours (Example 13). On the procedure:
Whole human blood was treated with LPS to stimulate inflammatory responses. […] The inflammatory molecule IL-1β was measured after 16 hours.

The next data set deals with NFκB. The data set is described as follows: NFκB luciferase assay (inhibition of TNFα-induced NFκB activity). The data set is classed as cell-based, Human. As to conditions: Homo sapiens; 20 ng/ml TNFα; HEK293 NFκB luciferase. Here is the method: The smokeless tobacco used in these experiments was plain long-leaf Copenhagen tobacco purchased from a local vendor. Crude extract was extracted with methanol and water and clarified by centrifugation and filtration. The alkaloid extract was prepared from sodium hydroxide and methanol extraction, organic phase separation and purification. All treatment samples were prepared as a function of weight (μg/ml), and all samples were diluted in DMSO.
Human […] kidney cells (HEK293) transfected with an NFκB luciferase reporter were challenged with TNFα for three hours, then samples were applied to the challenged cells.
The effect of S-(−)-anatabine on TNFα-induced NFκB activity in vitro was determined as described in Example 1.

Data set [4] in a line: Treatment of a patient with Hashimoto's thyroiditis. The conditions noted are these: one patient. Type of data set: in vivo, human. The text has this: This example illustrates administering anatabine for treating thyroiditis. A patient had been afflicted with Hashimoto's thyroiditis for approximately 5 years. The patient's condition had advanced to a state where the treating physician recommended a thyroid lobectomy.

Data set [5] in a line: Plasma pharmacokinetics after oral multi-dose anatabine polacrilex. As to conditions: for t1/2, terminal / AUC0→∞: rat; for t1/2, terminal: after the final dose; for AUC0→∞: males and females combined. The data set is classed as in vivo, Sprague-Dawley rats. On the procedure: This study consisted of two groups of 8 animals each, 4 males and 4 females.
The vehicle was sterile phosphate buffered saline (PBS) (Amresco). […] Two formulations were prepared; one for each of the two treatment groups. The test compound was formulated for each treatment group just prior to the first dose administration and constantly stirred until dosing was completed (Table 37). Four aliquots of each dose level formulation were collected and stored at −80° C.
The animals were weighed prior to dosing and received three doses p.o. of test compound at a volume of 5 mL/kg. Blood was collected via the venus plexus (retro-orbital) into tubes containing (K2) EDTA. No more than 0.5 mL was collected per time point.
Sample preparation. Plasma samples were treated with three volumes of methanol containing internal standard at 1 μM (R,S)-Antabine-2,4,5,6-d4), incubated 10 min at 4° C., and centrifuged. The amount of the test agent in the supernatant was determined by LC/MS/MS.
Analysis. Samples were analyzed by LC/MS/MS using an Agilent 6410 mass spectrometer coupled with an Agilent 1200 high pressure liquid chromatography (HPLC) and a CTC PAL chilled autosampler, all controlled by MassHunter software (Agilent). After separation on a Hydrophilic interaction liquid chromatography (HILIC) HPLC column (Sepax) using an acetonitrile-ammonium acetate/acetic acid gradient system, peaks were analyzed by mass spectrometry (MS) using ESI ionization in multiple reaction monitoring (MRM) mode. MassHunter software was used to calculate the concentration of the test compounds in samples from the peak area using the appropriate calibration curves.
Descriptive statistics were calculated for all pharmacokinetic parameters. Elimination half-lives (t1/2) were calculated by linear regression of logarithmically transformed plasma concentration data for each period between doses and following the final dose.
Total areas under the plasma concentration curves (AUC) and under the first moment curves (AUMC) were calculated using linear trapezoidal summation across all concentration time points as well as for intervals between each dose administration and following the final dose. […] Mean absorption times (MAT) were calculated according to the following relation: […]

The nature of data set [6]: Physical signs after oral multi-dose administration (Example 5). The data set is classed as in vivo, Sprague-Dawley rats. The conditions noted are these: rat; oral gavage 0.6 or 6.0 mg/kg BW in three divided doses. The text has this:
The physical signs of each animal were monitored following administration of the test compound.

What is called IC50 is the concentration that gives 50% inhibition. High values mean a need for much substance, low ones inhibition by little substance.

T2 sequence (P36544 23-502): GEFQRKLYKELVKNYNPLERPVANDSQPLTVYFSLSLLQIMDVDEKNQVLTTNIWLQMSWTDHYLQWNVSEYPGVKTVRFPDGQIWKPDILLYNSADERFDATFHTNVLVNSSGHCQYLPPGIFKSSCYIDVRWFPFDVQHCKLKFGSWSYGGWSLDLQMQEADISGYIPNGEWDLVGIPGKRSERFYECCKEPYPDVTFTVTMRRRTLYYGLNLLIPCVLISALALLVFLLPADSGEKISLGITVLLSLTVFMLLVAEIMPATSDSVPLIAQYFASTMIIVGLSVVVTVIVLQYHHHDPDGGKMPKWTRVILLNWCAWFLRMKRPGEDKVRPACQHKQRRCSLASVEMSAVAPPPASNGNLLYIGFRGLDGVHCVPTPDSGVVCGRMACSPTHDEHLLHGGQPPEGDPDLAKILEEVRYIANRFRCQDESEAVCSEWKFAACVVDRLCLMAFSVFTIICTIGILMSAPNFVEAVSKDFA
Chain of nAChR α3/β4 (P32297 32-505): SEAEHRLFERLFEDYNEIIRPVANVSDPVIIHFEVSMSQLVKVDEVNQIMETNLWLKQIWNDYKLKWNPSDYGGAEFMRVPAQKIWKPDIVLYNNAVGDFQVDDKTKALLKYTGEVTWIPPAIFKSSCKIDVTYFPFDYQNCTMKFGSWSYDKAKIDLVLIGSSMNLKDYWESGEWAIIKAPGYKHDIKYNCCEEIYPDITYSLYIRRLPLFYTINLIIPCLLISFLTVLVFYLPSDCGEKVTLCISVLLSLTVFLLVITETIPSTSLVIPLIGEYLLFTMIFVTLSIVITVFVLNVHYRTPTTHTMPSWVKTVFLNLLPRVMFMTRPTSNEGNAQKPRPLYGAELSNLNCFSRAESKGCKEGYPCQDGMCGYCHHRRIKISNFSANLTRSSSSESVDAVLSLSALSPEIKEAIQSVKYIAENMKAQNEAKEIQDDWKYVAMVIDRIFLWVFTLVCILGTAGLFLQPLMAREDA
Chain of nAChR α3/β4 (P30926 22-498): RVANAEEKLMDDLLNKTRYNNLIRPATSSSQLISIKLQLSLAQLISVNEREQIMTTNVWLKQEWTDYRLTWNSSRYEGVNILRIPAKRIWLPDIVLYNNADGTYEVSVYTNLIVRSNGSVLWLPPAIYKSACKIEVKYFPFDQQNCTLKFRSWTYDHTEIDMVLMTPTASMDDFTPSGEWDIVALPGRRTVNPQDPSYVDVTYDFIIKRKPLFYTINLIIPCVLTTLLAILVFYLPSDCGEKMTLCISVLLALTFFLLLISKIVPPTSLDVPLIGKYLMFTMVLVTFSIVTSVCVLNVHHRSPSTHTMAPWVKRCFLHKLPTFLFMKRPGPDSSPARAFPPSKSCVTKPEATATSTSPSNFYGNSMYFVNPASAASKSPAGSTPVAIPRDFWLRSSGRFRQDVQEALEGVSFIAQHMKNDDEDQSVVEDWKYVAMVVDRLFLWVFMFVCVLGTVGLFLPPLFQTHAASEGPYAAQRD

On to `C1=CCC(c2cccnc2)NC1` (racemic) [Anatabine (racemate)], for which the “Normalized % Activation” value at nAChR α3/β4 is −0.01%; on nAChR α4/β2 it was 0.28%; at nAChR α7 [1] (test conc 1 μm) it was 0.34%; at nAChR α7 [1] (test conc 3 μm) it was 0.78%. Also, the “Normalized % Potentiation” value is reported as −0.94% on nAChR α7 [2] (test conc 0.3 μm); −0.82% at nAChR α7 [2] (test conc 3 μm); −0.51% on nAChR α7 [2] (test conc 10 μm); −0.57% on nAChR α7 [2] (test conc 30 μm); −0.64% at nAChR α7 [2] (test conc 100 μm); −0.74% on nAChR α7 [2] (test conc 300 μm). Further, the “Normalized % Inhibition” value at nAChR α7 [3] (test conc 0.3 μm) is given as 22.38%; at nAChR α7 [3] (test conc 1 μm), 22.23%; on nAChR α7 [3] (test conc 3 μm), 45.19%; on nAChR α7 [3] (test conc 10 μm) it was 33.42%; at nAChR α7 [3] (test conc 30 μm), 22.88%; at nAChR α7 [3] (test conc 100 μm) it was 21.99%. Further, the “Normalized % Inhibition” value is on record as 7.51% on nAChR α7 [3] (test conc 300 μm) and 10.84% at nAChR α7 [3] (test conc 1000 μm).
As for `CC(C)c1c(C(=O)Nc2ccccc2)c(-c2ccccc2)c(-c2ccc(F)cc2)n1CC[C@@H](O)C[C@@H](O)CC(=O)[O-].CC(C)c1c(C(=O)Nc2ccccc2)c(-c2ccccc2)c(-c2ccc(F)cc2)n1CC[C@@H](O)C[C@@H](O)CC(=O)[O-].[Ca+2]` [LIPITOR®, reference compound], the “accumulation of IL-1β” value with IL-1β was “had no effect at the dose shown”.
Turning to `C1=CC[C@@H](c2cccnc2)NC1` [S-(−)-anatabine], in the data set with NFκB, the IC50 is ~330 µg/mL (≈ 2060 µM).
On to anatabine citrate, for which, in [4] (about 600 μg tablets 20 times daily, 30 days), the “inflammation of the thyroid” value is reported as “reduced to normal levels”. Moreover, in data set [4] (after an additional 30 days), the “voice distortion associated with thyroiditis” value is recorded as “no longer present”.
In the case of anatabine polacrilex, the “Cp, min(2)” value in data set [5] (females, 6.0 mg/kg BW group) came out at 180 ± 31 ng/mL. Also, the “Cp, min, first minimum” value in [5] (females, 6.0 mg/kg BW group) is 51.5 ± 26.0 ng/mL. The “t1/2, terminal” value in data set [5] (0.6 mg/kg BW group) was found to be 1.79 ± 0.64 h; in [5] (6.0 mg/kg BW group), 4.53 ± 1.77 h. Moreover, the “AUC0→∞” value came to 285 ± 77 ng·h/mL in data set [5] (0.6 mg/kg BW p.o. in three divided doses) and 3496 ± 559 ng·h/mL in data set [5] (6.0 mg/kg BW p.o. in three divided doses). In addition, in data set [6], the adverse signs entry is “no adverse signs were observed”.
